The values below come from patent US5234907A, “Synthetic vasoactive intestinal peptide analogs” (Hoffmann-La Roche Inc., priority 1991, dated 1993).

*1 amine or outer side, *2 acyl side, *3 side chain or, on linkers, in order; H or OH if unused. [ ]: non-standard residue; d: D form. Cys(Acm) = CC(=O)NCSC[C@H](N[*:1])C(=O)[*:2]; Phe(4-F) = N[C@@H](Cc1ccc(F)cc1)C(=O)O; NMeA = CN[C@@H](C)C(=O)O; Nle = CCCC[C@H](N)C(=O)O

Experiment [1] deals with guinea pig tracheal smooth muscle. Put plainly: Tracheal relaxant activity of VIP analogs on isolated guinea pig tracheal rings. In kind it is cell-based. To be noted: cumulative concentration response; responses as % of maximum response to VIP (10^-6 M=100%); at least three tissues pooled; linear regression.
For the next experiment, the system named is guinea pigs. Put plainly: In vivo bronchodilator activity by tracheal instillation against histamine-induced bronchoconstriction. Also noted: species or system guinea pig. As to conditions: 100 μl, anesthetized male Hartley guinea pigs, histamine challenge 50 μg/kg i.v., inhibition of tracheal pressure increase.

Usually EC50 stands for the concentration at which the effect is half-maximal. Low values mean a more potent agent, high ones a less potent agent. On to “Ac--[N--Me--Ala^1, Lys^12, Nle^17, Ala^19, ^26, Thr^28 ]--VIP (Ac-[NMeA]SDAVFTDNYTKLRKQ[Nle]AAKKYLNSVLT-NH2; SMILES CCCC[C@H](NC(=O)[C@H](CCC(N)=O)NC(=O)[C@H](CCCCN)NC(=O)[C@H](CCCNC(=N)N)NC(=O)[C@H](CC(C)C)NC(=O)[C@H](CCCCN)NC(=O)[C@@H](NC(=O)[C@H](Cc1ccc(O)cc1)NC(=O)[C@H](CC(N)=O)NC(=O)[C@H](CC(=O)O)NC(=O)[C@@H](NC(=O)[C@H](Cc1ccccc1)NC(=O)[C@@H](NC(=O)[C@H](C)NC(=O)[C@H](CC(=O)O)NC(=O)[C@H](CO)NC(=O)[C@H](C)N(C)C(C)=O)C(C)C)[C@@H](C)O)[C@@H](C)O)C(=O)N[C@@H](C)C(=O)N[C@@H](C)C(=O)N[C@@H](CCCCN)C(=O)N[C@@H](CCCCN)C(=O)N[C@@H](Cc1ccc(O)cc1)C(=O)N[C@@H](CC(C)C)C(=O)N[C@@H](CC(N)=O)C(=O)N[C@@H](CO)C(=O)N[C@H](C(=O)N[C@@H](CC(C)C)C(=O)N[C@H](C(N)=O)[C@@H](C)O)C(C)C) [Ac--(SEQ ID NO: 91)--NH2, residue before ^26 lost in print, probably Val^26]”, for which a half-maximal response in experiment [1] (EC50) required 2.8 nM. Further, the “Bronchodilator activity in guinea pigs, ED50” value with guinea pigs was determined as 1.5 µg.
On the same counts, the results for “Ac--[p-F--Phe^6, Glu^8, Lys^12, Nle^17, Ala^19, Val^26, Thr^28, Gly^29,30, Cys(Acm)^31 ]--VIP (Ac-HSDAV[Phe(4-F)]TENYTKLRKQ[Nle]AAKKYLNSVLTGG[Cys(Acm)]-NH2; SMILES CCCC[C@H](NC(=O)[C@H](CCC(N)=O)NC(=O)[C@H](CCCCN)NC(=O)[C@H](CCCNC(=N)N)NC(=O)[C@H](CC(C)C)NC(=O)[C@H](CCCCN)NC(=O)[C@@H](NC(=O)[C@H](Cc1ccc(O)cc1)NC(=O)[C@H](CC(N)=O)NC(=O)[C@H](CCC(=O)O)NC(=O)[C@@H](NC(=O)[C@H](Cc1ccc(F)cc1)NC(=O)[C@@H](NC(=O)[C@H](C)NC(=O)[C@H](CC(=O)O)NC(=O)[C@H](CO)NC(=O)[C@H](Cc1c[nH]cn1)NC(C)=O)C(C)C)[C@@H](C)O)[C@@H](C)O)C(=O)N[C@@H](C)C(=O)N[C@@H](C)C(=O)N[C@@H](CCCCN)C(=O)N[C@@H](CCCCN)C(=O)N[C@@H](Cc1ccc(O)cc1)C(=O)N[C@@H](CC(C)C)C(=O)N[C@@H](CC(N)=O)C(=O)N[C@@H](CO)C(=O)N[C@H](C(=O)N[C@@H](CC(C)C)C(=O)N[C@H](C(=O)NCC(=O)NCC(=O)N[C@@H](CSCNC(C)=O)C(N)=O)[C@@H](C)O)C(C)C) [Ac--(SEQ ID NO: 67)--NH2]” are 1.9 nM and 0.30 µg.
On the same counts, the results for “Ac--[N--Me--Ala^1, Lys^12, Nle^17, Val^26, Thr^28 ]--VIP (Ac-[NMeA]SDAVFTDNYTKLRKQ[Nle]AVKKYLNSVLT-NH2; SMILES CCCC[C@H](NC(=O)[C@H](CCC(N)=O)NC(=O)[C@H](CCCCN)NC(=O)[C@H](CCCNC(=N)N)NC(=O)[C@H](CC(C)C)NC(=O)[C@H](CCCCN)NC(=O)[C@@H](NC(=O)[C@H](Cc1ccc(O)cc1)NC(=O)[C@H](CC(N)=O)NC(=O)[C@H](CC(=O)O)NC(=O)[C@@H](NC(=O)[C@H](Cc1ccccc1)NC(=O)[C@@H](NC(=O)[C@H](C)NC(=O)[C@H](CC(=O)O)NC(=O)[C@H](CO)NC(=O)[C@H](C)N(C)C(C)=O)C(C)C)[C@@H](C)O)[C@@H](C)O)C(=O)N[C@@H](C)C(=O)N[C@H](C(=O)N[C@@H](CCCCN)C(=O)N[C@@H](CCCCN)C(=O)N[C@@H](Cc1ccc(O)cc1)C(=O)N[C@@H](CC(C)C)C(=O)N[C@@H](CC(N)=O)C(=O)N[C@@H](CO)C(=O)N[C@H](C(=O)N[C@@H](CC(C)C)C(=O)N[C@H](C(N)=O)[C@@H](C)O)C(C)C)C(C)C) [Ac--(SEQ ID NO: 88)--NH2]” are 7.2 nM and 8.5 µg.
“Ac--[Glu^8, Lys^12, Nle^17, Ala^19, Ala^25, Leu^26, Lys^27,28, Ala^29-31 ]--VIP (Ac-HSDAVFTENYTKLRKQ[Nle]AAKKYLNALKKAAA-NH2; SMILES CCCC[C@H](NC(=O)[C@H](CCC(N)=O)NC(=O)[C@H](CCCCN)NC(=O)[C@H](CCCNC(=N)N)NC(=O)[C@H](CC(C)C)NC(=O)[C@H](CCCCN)NC(=O)[C@@H](NC(=O)[C@H](Cc1ccc(O)cc1)NC(=O)[C@H](CC(N)=O)NC(=O)[C@H](CCC(=O)O)NC(=O)[C@@H](NC(=O)[C@H](Cc1ccccc1)NC(=O)[C@@H](NC(=O)[C@H](C)NC(=O)[C@H](CC(=O)O)NC(=O)[C@H](CO)NC(=O)[C@H](Cc1c[nH]cn1)NC(C)=O)C(C)C)[C@@H](C)O)[C@@H](C)O)C(=O)N[C@@H](C)C(=O)N[C@@H](C)C(=O)N[C@@H](CCCCN)C(=O)N[C@@H](CCCCN)C(=O)N[C@@H](Cc1ccc(O)cc1)C(=O)N[C@@H](CC(C)C)C(=O)N[C@@H](CC(N)=O)C(=O)N[C@@H](C)C(=O)N[C@@H](CC(C)C)C(=O)N[C@@H](CCCCN)C(=O)N[C@@H](CCCCN)C(=O)N[C@@H](C)C(=O)N[C@@H](C)C(=O)N[C@@H](C)C(N)=O) [Ac--(SEQ ID NO: 21)--NH2]”: the half-maximal effective concentration (EC50) in experiment [1] turned out to be 0.1 nM. In addition, the “Bronchodilator activity in guinea pigs, ED50” value in the experiment on guinea pigs amounted to 0.03 µg.
